# From patent publication US20090137565A1, “Method for treatment of movement disorders” (The Trustees of Columbia University in the City of New York, priority 2004, published 2009)
# “Also recorded” adds a separate entry of the source.
# Columns and labels:
# [1] = Five-patient trial: tolerability of Xyrem; format: in vivo, human
# Description: Side effects were defined as either minor or serious (leading to hospitalization) using good clinical practice standards (www.who.int/medicines/library/par/ggcp/GCPGuidePharmatrials), and patients were asked to report side effects at each visit. After initial examination and videotaping, patients were given 1 gm of sodium oxybate by mouth (2 ml of the standard 0.5 gm/ml solution dissolved in 60 ml of water). One hour later, the senior author repeated the examination and videotaping. […] After two weeks taking 2 gm twice daily, the procedure was repeated after a 3 gm office dose, and finally two weeks after receiving 3 gm twice daily, the procedure was repeated after a 4 gm office dose. The maximum dose allowed in the trial was 4 gm twice daily. Patients and the senior author determined at each visit whether or not to proceed to the next dose level, based principally on their ability to tolerate the most recent dose regimen. After deciding on a maximum tolerated dose, patients received a dose in the office 0.5 gm less and the examination was videotaped.
# [2] = system: severe alcohol-responsive posthypoxic myoclonus; test: Single-patient open-label dose-finding trial of GHB, blinded Unified Myoclonus Rating Scale (UMRS); format: in vivo, human; conditions: for UMRS I (Self Assessment) score: max 44, 0 gm score 33; for UMRS VIII (Severity) score: max 3, 0 gm score 2; for UMRS I (Global Disability) score / UMRS VI (MD Global Disab.) score: max 4, 0 gm score 3; for UMRS III (Stimulus-Sens.) score: max 17, 0 gm score 12; for UMRS V (Funct. Performance) score: max 20, 0 gm score 20; for UMRS II (Myoclonus @ Rest) score: max 128, 0 gm score 21; for UMRS IV (Action Myoclonus) score: max 160, 0 gm score 108; for UMRS VII (Neg. Myoclonus) score: present (1) or absent (0), 0 gm score 1
# Description: An open-label, dose-finding, blinded rating trial of GHB in a single patient with severe, debilitating alcohol-responsive posthypoxic myoclonus refractory to treatment with standard anti-myoclonic agents was conduced. […] Intensity and severity of myoclonus was measured using the Unified Myoclonus Rating Scale (UMRS), a non-invasive clinical rating scale. In addition, the patient was videotaped while the UMRS was performed, so that myoclonus could be scored by a blinded rater.
# Given the dramatic response to alcohol, a single-patient, open-label, dose-ranging trial to assess the tolerability and efficacy of GHB (Xyrem®, Orphan Medical, Inc.) as a treatment for alcohol-responsive posthypoxic myoclonus was designed, which was approved by The Columbia University Medical Center Institutional Review Board. After obtaining informed consent, they were videotaped during performance of the Unified Myoclonus Rating Scale (UMRS). The UMRS is a validated clinical rating instrument that measures the severity and intensity of myoclonus and has been used in other trials of anti-myoclonic agents. Frucht S. J., et al., Adv Neurology Vol. 89 Lippincott Williams and Wilkins, Philadelphia, 2002:361-376. The scale consists of eight sections: section I: patient questionnaire (11 items); section II: myoclonus at rest (frequency and amplitude, 16 items); section III: stimulus-sensitive myoclonus (17 items); section IV: severity of myoclonus with action (frequency and amplitude, 20 items); section V: performance on functional tests (5 items); section VI: physician rating of patient's global disability (1 item); section VII: presence of negative myoclonus (1 item); section VIII: severity of negative myoclonus (1 item). Each item is rated on a scale of 0 to 4, with higher scores assigned to myoclonus of greater severity or frequency. For section III stimulus-sensitivity is either present (1) or absent (0); section VII negative myoclonus either present (1) or absent (0); and section VIII negative myoclonus absent (0) to severe (3).
# All office visits and the UMRS scale were performed by the supervisory physician. The patient came to the office for five visits, each separated by two weeks (time 0, 2 weeks, 4 weeks, 6 weeks and 8 weeks). At each visit, the physician examined the patient, and inquired about any adverse events. The physician performed the UMRS while the patient was videotaped. Xyrem® was dispensed by the physician at each visit.
# At the initial visit the UMRS was performed and videotaped, 1 gm of GHB was administered by mouth, and they were monitored in the office for one hour. They then took 1 gm twice daily for two weeks, at which time they returned to the office. One hour after receiving 2 grams of GHB, the UMRS was performed and videotaped and for the next two weeks they took 2 grams twice daily. Two weeks later, the UMRS was performed and videotaped one hour after receiving 3 grams of GHB, and after two weeks of 3 grams twice daily, the same procedure was performed after receiving 4 grams in the office. After taking 4 grams twice daily for two weeks, they returned for UMRS videotaping, and the decision was made to continue the target dose of 4 gm twice daily.
# A movement disorder neurologist blinded to the trial design scored videotapes of the baseline visit, 2 gm, 3 gm, 4 gm (first) and 4 gm (second) visits in random order. The blinded rater was not provided with treatment scores of section I of the UMRS (patient self-assessment) in order to maintain the rating blind. Scores for each section were calculated as described previously. Frucht S. J., et al., Adv Neurology Vol. 89. Lippincott Williams and Wilkins, Philadelphia, 2002:361-376.
# [3] = system: alcohol-responsive myoclonus with dystonia; conditions: single patient, recently reported; cited from earlier work
# [4] = patient 4, listed as Xyrem ®, monosodium salt
structure (smiles),measurement,setting,value
"O=C([O-])CCCO.[Na+] [GHB, 4-hydroxybutanoic acid monosodium salt]",common side effects not requiring dose reduction,[1]; five patients,Transient headache and dizziness
same,Dose @ D-L-SE,[1]; patient 1,3 gm
same,D-L-SE (dose-limiting side effect),"[1]; patient 1, disinhibition printed as mild, listed as Xyrem ®, monosodium salt",sedation and mild; also recorded: disinhibition
same,"SER SE (serious side effect, leading to hospitalization)","[1]; patient 1, judged not likely related to study drug",asthma
same,Dose @ D-L-SE,[1]; patient 2,3 gm
same,MILD SE,[1]; patient 2,Ø
same,SER SE,[1]; patient 2,Ø
same,D-L-SE (dose-limiting side effect),"[1]; patient 2, listed as Xyrem ®, monosodium salt",emotional lability
same,D-L-SE (dose-limiting side effect),[1]; patient 3,slight sedation
same,Dose @ D-L-SE,[1]; patient 3,4 gm
same,SER SE,[1]; patient 3,Ø
same,MILD SE,"[1]; patient 3, listed as Xyrem ®, monosodium salt",HA (1 gm); also recorded: dizzy (1 gm)
same,Dose @ D-L-SE,[1]; patient 4,2 gm
same,SER SE,[1]; patient 4,Ø
same,D-L-SE (dose-limiting side effect),[1]; [4],emotional lability
same,MILD SE,[1]; [4],HA (1 gm); also recorded: dizzy (2 gm)
same,D-L-SE (dose-limiting side effect),[1]; patient 5,slight sedation
same,Dose @ D-L-SE,[1]; patient 5,2 gm
same,MILD SE,[1]; patient 5,Ø
same,SER SE,[1]; patient 5,Ø
same,resting and stimulus-sensitive myoclonus,[2]; 2 gm twice daily,markedly improved
same,UMRS I (Self Assessment) score,"[2]; 2 gm, 1 h after oral dose",31
same,UMRS VIII (Severity) score,[2]; 2 gm,2
same,UMRS I (Global Disability) score,[2]; 2 gm,3
same,UMRS VI (MD Global Disab.) score,[2]; 2 gm,2
same,UMRS III (Stimulus-Sens.) score,[2]; 2 gm,5
same,UMRS V (Funct. Performance) score,[2]; 2 gm,10
same,UMRS II (Myoclonus @ Rest) score,[2]; 2 gm,8
same,UMRS IV (Action Myoclonus) score,[2]; 2 gm,70
same,UMRS VII (Neg. Myoclonus) score,[2]; 2 gm,1
same,resting and stimulus-sensitive myoclonus,[2]; 3 gm twice daily,virtually disappeared
same,UMRS VIII (Severity) score,[2]; 3 gm,2
same,UMRS I (Global Disability) score,[2]; 3 gm,2
same,UMRS VI (MD Global Disab.) score,[2]; 3 gm,2
same,UMRS III (Stimulus-Sens.) score,[2]; 3 gm,1
same,UMRS V (Funct. Performance) score,[2]; 3 gm,8
same,UMRS I (Self Assessment) score,[2]; 3 gm,25
same,UMRS II (Myoclonus @ Rest) score,[2]; 3 gm,3
same,UMRS IV (Action Myoclonus) score,[2]; 3 gm,64
same,UMRS VII (Neg. Myoclonus) score,[2]; 3 gm,1
same,UMRS VIII (Severity) score,[2]; 4 gm (2nd visit),2
same,UMRS I (Global Disability) score,[2]; 4 gm (2nd visit),2
same,UMRS VI (MD Global Disab.) score,[2]; 4 gm (2nd visit),2
same,UMRS III (Stimulus-Sens.) score,[2]; 4 gm (2nd visit),3
same,UMRS V (Funct. Performance) score,[2]; 4 gm (2nd visit),4
same,UMRS I (Self Assessment) score,[2]; 4 gm (2nd visit),15
same,UMRS II (Myoclonus @ Rest) score,[2]; 4 gm (2nd visit),1
same,UMRS IV (Action Myoclonus) score,[2]; 4 gm (2nd visit),58
same,UMRS VII (Neg. Myoclonus) score,[2]; 4 gm (2nd visit),1
same,UMRS VIII (Severity) score,[2]; 4 gm,2
same,UMRS I (Global Disability) score,[2]; 4 gm,2
same,UMRS VI (MD Global Disab.) score,[2]; 4 gm,2
same,UMRS III (Stimulus-Sens.) score,[2]; 4 gm,1
same,UMRS V (Funct. Performance) score,[2]; 4 gm,7
same,UMRS I (Self Assessment) score,[2]; 4 gm,18
same,UMRS II (Myoclonus @ Rest) score,[2]; 4 gm,1
same,UMRS IV (Action Myoclonus) score,[2]; 4 gm,53
same,UMRS VII (Neg. Myoclonus) score,[2]; 4 gm,1
same,myoclonus at rest and stimulus-sensitive myoclonus,"[2]; UMRS and blinded video rating, divided doses during the day",complete resolution
same,duration of benefit,[2]; after the first 2 gm dose,approximately 3 hours
same,time at which benefit peaked,[2]; after the first 2 gm dose,one
same,time to marked diminution of myoclonus at rest and stimulus-sensitivity,[2]; after the first 2 gm dose,≤ 20 min
same,change in clinical examination,[2]; after the initial 1 gm dose,Little difference
same,time of peak effect,[2]; each dose greater than or equal to 2 gm,one
same,"negative myoclonus, blinded videotape review","[2]; human, in vivo",did not confirm the examiner's impression that negative myoclonus improved
same,improvement of functional performance (section V),"[2]; writing, spiral copying, pouring, using a spoon",80%
same,effect on myoclonus,[3],improved myoclonus
